Experiment [1] has as its target 5-hydroxytryptamine receptor 4 (Cavia porcellus, UniProt O70528). In words: Displacement of [3H]GR113808 from 5HT4 receptor in guinea pig striatal membranes. It is filed as cell membranes, Striatum, Membrane.
Experiment [2] has as its target T1, 5-hydroxytryptamine receptor 4 (Homo sapiens, UniProt Q13639). Briefly: Displacement of [3H]GR113808 from human recombinant 5HT4 receptor expressed in HEK293 cells. The experiment is classed as cell-based.
In experiment [3] the target is T1, 5-hydroxytryptamine receptor 4. Briefly: Antagonist activity at 5HT4 receptor expressed in HEK293/L9 cells by cAMP assay. The experiment is classed as functional, cell-based.
The target of experiment [4] is 5-hydroxytryptamine receptor 1B (Homo sapiens, UniProt P28222). Briefly: Binding affinity to human 5-HT1B receptor.
The target in experiment [5] is 5-hydroxytryptamine receptor 1D (Homo sapiens, UniProt P28221). Briefly: Binding affinity to human 5-HT1D receptor.
In experiment [6] the target is 5-hydroxytryptamine receptor 1E (Homo sapiens, UniProt P28566). Briefly: Binding affinity to human 5-HT1E receptor.
Experiment [7] has as its target 5-hydroxytryptamine receptor 2B (Homo sapiens, UniProt P41595). In words: Binding affinity to human 5-HT2B receptor.
Experiment [8] concerns the target 5-hydroxytryptamine receptor 7 (Homo sapiens, UniProt P34969). Briefly: Binding affinity to human 5-HT7 receptor.
For experiment [9], the target named is Sodium-dependent serotonin transporter (Homo sapiens, UniProt P31645). In words: Binding affinity to human SERT.
Experiment [10] addresses T2, Alpha-1A adrenergic receptor (Homo sapiens, UniProt P35348).
T2 sequence (P35348 whole entry): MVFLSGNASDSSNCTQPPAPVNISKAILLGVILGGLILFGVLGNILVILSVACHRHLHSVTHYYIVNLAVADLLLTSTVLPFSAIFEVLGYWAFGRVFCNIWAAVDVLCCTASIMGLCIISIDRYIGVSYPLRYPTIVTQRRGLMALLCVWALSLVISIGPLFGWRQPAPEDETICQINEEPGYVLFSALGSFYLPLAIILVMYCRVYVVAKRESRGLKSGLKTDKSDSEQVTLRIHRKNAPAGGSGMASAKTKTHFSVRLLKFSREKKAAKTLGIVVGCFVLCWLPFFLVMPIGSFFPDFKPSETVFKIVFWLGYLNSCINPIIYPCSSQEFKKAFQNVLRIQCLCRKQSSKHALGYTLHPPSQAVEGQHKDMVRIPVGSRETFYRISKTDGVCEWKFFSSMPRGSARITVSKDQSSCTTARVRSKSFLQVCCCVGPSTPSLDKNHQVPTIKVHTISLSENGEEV
In words: Binding affinity to human adrenergic alpha1A receptor.

The target in experiment [11] is T3, Alpha-1B adrenergic receptor (Homo sapiens, UniProt P35368).
T3 sequence (P35368 whole entry): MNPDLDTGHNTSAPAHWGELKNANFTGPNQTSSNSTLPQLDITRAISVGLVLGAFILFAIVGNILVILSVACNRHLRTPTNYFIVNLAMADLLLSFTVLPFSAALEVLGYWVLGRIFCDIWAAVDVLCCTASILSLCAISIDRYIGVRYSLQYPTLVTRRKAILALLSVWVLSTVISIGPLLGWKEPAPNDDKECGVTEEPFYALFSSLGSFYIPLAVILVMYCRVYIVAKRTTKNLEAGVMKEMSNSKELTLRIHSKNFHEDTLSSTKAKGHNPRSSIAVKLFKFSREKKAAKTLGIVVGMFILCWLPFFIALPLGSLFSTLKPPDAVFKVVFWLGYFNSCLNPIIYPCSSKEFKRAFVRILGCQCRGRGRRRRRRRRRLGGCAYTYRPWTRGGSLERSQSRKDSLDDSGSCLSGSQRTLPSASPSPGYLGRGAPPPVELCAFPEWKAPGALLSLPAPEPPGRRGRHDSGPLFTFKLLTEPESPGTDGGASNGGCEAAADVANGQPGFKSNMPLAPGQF
Briefly: Binding affinity to human adrenergic Alpha-1B receptor.

Experiment [12] addresses Alpha-2A adrenergic receptor (Homo sapiens, UniProt P08913). In words: Binding affinity to human adrenergic alpha2A receptor.
The target of experiment [13] is Beta-2 adrenergic receptor (Rattus norvegicus, UniProt P10608). In words: Binding affinity to rat adrenergic beta2 receptor.
The target in experiment [14] is Sigma non-opioid intracellular receptor 1 (Rattus norvegicus, UniProt Q9R0C9). In words: Binding affinity to rat sigma 1 receptor.
Experiment [15] addresses Delta-type opioid receptor (Homo sapiens, UniProt P41143). In words: Binding affinity to human delta opioid receptor.
In the next experiment the target is D(1A) dopamine receptor (Rattus norvegicus, UniProt P18901). In words: Binding affinity to rat dopamine D1 receptor.
A further experiment concerns the target D(2) dopamine receptor (Rattus norvegicus, UniProt P61169). In words: Binding affinity to rat dopamine D2 receptor.
The next experiment addresses D(3) dopamine receptor (Rattus norvegicus, UniProt P19020). In words: Binding affinity to rat dopamine D3 receptor.
The next experiment concerns the target T4, D(4) dopamine receptor (Rattus norvegicus, UniProt P30729).
T4 sequence (P30729 whole entry): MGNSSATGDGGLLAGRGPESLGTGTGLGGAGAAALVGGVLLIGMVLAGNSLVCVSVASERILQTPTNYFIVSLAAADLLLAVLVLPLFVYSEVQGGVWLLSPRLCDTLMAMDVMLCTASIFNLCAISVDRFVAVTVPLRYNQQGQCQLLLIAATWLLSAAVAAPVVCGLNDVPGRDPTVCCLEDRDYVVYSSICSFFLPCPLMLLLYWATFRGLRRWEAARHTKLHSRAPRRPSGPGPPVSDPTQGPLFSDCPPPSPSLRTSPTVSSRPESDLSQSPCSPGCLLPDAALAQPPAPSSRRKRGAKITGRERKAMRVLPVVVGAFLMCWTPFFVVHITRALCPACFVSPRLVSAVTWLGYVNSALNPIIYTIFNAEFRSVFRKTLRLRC
In words: Binding affinity to rat dopamine D4 receptor.

For experiment [16], the target named is GABA-A receptor; agonist GABA site. Briefly: Binding affinity to human GABAA receptor. The experiment is classed as protein-complex assay.
A further experiment has as its target Histamine H1 receptor (Cavia porcellus, UniProt P31389). Briefly: Binding affinity to guinea pig histamine H1 receptor.
The next experiment has as its target Histamine H2 receptor (Cavia porcellus, UniProt P47747). Briefly: Binding affinity to guinea pig histamine H2 receptor.
For experiment [17], the target named is Muscarinic acetylcholine receptor M2 (Homo sapiens, UniProt P08172). Briefly: Binding affinity to human muscarinic M2 receptor.
The target in experiment [18] is Muscarinic acetylcholine receptor M4 (Homo sapiens, UniProt P08173). In words: Binding affinity to human muscarinic M4 receptor.
The target in experiment [19] is T1, 5-hydroxytryptamine receptor 4. Briefly: Inverse agonist activity at 5HT4 receptor expressed in HEK293/L9 cells by cAMP assay. It is filed as functional, cell-based.
For experiment [20] the target is unchanged. In words: Agonist activity at 5HT4 receptor expressed in HEK293/L9 cells by cAMP assay. It is filed as functional, cell-based.

Active and inactive are the calls of the source. No cut-off for these calls is given here.

T1 sequence (Q13639 whole entry): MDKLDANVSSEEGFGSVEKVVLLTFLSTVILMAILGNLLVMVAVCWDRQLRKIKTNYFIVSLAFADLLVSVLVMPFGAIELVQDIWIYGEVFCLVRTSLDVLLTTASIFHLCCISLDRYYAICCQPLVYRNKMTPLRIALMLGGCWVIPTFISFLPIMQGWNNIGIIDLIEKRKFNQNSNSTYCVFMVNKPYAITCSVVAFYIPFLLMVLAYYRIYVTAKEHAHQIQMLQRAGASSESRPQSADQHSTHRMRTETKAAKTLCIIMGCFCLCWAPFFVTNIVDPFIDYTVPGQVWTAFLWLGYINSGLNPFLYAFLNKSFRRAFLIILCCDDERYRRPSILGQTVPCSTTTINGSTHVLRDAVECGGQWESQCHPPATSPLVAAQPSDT
Sequence of 5-hydroxytryptamine receptor 4 (Cavia porcellus, UniProt O70528) (O70528 whole entry): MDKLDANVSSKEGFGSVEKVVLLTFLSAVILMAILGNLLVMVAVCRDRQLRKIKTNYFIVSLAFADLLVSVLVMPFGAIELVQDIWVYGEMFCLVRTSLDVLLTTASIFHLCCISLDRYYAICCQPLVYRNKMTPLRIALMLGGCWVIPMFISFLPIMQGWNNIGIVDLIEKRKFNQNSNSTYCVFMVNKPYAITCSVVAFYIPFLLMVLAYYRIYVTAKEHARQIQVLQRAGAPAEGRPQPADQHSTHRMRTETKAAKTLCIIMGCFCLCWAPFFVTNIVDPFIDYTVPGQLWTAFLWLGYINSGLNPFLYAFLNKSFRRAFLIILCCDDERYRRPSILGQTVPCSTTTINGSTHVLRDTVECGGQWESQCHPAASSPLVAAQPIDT
Sequence of Muscarinic acetylcholine receptor M2 (P08172 whole entry): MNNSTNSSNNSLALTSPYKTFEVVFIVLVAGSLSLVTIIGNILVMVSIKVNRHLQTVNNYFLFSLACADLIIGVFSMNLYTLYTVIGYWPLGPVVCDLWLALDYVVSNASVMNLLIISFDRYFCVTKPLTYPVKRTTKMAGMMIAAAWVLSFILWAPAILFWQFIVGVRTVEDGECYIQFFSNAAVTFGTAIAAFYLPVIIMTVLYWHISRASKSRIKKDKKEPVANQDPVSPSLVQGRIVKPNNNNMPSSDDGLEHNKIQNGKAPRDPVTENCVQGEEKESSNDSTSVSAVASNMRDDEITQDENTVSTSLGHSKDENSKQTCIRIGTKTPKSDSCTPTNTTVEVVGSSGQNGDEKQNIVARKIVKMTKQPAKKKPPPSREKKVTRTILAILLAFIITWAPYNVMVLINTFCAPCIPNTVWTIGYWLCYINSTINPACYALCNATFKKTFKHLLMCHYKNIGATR
Sequence of Histamine H2 receptor (P47747 whole entry): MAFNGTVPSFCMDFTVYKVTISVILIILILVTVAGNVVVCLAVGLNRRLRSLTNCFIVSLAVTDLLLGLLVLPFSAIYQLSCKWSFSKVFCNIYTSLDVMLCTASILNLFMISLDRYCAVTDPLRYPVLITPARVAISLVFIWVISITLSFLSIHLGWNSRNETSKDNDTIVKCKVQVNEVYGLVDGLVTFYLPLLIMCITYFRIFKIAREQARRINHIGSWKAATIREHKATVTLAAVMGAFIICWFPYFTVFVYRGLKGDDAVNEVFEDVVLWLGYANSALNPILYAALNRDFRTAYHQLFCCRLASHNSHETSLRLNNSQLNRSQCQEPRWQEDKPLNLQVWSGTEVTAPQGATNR
Sequence of 5-hydroxytryptamine receptor 1B (P28222 whole entry): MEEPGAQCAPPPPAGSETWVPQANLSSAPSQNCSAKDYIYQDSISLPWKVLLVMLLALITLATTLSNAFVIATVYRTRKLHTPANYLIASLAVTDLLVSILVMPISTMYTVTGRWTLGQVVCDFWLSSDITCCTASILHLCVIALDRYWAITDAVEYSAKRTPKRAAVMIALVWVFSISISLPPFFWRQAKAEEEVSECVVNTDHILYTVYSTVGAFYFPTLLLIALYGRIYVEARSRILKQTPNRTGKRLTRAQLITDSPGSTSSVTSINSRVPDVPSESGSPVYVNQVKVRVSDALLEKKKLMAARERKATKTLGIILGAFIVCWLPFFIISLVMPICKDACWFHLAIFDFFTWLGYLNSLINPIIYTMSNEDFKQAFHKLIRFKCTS
Sequence of 5-hydroxytryptamine receptor 7 (P34969 whole entry): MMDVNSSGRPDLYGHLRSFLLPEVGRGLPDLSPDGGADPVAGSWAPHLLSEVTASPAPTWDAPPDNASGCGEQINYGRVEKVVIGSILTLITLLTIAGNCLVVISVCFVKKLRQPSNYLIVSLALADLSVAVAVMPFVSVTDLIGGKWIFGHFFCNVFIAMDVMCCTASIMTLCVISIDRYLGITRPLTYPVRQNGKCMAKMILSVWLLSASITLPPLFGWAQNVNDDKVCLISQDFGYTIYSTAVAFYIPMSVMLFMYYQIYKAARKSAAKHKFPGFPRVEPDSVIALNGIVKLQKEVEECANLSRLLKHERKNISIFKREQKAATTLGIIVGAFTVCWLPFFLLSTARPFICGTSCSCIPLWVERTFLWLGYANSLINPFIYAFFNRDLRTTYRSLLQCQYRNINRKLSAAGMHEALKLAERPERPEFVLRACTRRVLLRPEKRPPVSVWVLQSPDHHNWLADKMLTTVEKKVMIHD
Sequence of 5-hydroxytryptamine receptor 1D (P28221 whole entry): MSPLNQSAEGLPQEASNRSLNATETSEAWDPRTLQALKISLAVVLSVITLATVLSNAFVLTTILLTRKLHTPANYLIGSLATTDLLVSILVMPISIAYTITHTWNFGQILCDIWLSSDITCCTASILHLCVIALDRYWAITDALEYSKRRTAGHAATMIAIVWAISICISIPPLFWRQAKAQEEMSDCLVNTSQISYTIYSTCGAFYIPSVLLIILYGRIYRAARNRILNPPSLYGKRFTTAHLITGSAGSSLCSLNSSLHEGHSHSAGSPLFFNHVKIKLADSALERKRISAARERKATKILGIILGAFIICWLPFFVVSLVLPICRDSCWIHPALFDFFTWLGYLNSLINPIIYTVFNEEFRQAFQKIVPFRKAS
Sequence of Delta-type opioid receptor (P41143 whole entry): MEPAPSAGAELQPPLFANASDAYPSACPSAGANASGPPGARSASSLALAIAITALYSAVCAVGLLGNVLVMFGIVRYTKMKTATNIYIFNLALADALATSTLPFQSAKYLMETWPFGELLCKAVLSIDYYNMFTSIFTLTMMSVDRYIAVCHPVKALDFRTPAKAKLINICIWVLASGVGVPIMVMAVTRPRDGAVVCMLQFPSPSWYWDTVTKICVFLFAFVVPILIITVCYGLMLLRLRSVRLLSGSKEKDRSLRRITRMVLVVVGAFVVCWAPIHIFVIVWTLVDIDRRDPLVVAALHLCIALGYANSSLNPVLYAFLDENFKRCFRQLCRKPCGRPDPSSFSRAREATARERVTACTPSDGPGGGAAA
Sequence of D(2) dopamine receptor (P61169 whole entry): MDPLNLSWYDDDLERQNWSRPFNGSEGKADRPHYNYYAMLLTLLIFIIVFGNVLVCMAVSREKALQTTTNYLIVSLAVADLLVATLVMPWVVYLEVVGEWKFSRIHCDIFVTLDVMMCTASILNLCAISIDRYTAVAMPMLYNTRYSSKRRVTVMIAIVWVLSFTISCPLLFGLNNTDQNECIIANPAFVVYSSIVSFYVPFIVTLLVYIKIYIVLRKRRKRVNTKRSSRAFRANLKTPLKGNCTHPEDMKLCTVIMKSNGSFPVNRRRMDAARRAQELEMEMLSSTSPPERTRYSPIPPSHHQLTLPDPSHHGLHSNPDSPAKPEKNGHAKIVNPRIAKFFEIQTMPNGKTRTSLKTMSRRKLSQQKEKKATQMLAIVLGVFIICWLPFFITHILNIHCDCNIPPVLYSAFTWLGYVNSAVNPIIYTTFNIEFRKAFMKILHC
Sequence of 5-hydroxytryptamine receptor 2B (P41595 whole entry): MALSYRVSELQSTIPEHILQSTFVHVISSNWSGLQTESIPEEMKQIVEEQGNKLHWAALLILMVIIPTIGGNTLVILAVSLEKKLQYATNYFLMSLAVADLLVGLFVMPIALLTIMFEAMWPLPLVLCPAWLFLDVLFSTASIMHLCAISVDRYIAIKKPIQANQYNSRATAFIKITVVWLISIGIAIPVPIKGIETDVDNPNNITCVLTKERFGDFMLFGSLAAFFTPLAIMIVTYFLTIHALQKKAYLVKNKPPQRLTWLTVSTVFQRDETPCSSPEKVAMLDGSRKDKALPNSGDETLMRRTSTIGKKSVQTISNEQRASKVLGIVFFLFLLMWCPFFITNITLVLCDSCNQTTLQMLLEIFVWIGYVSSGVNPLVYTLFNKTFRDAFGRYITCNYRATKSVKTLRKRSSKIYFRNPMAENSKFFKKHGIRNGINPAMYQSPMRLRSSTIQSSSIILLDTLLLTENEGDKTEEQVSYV
Sequence of Muscarinic acetylcholine receptor M4 (P08173 whole entry): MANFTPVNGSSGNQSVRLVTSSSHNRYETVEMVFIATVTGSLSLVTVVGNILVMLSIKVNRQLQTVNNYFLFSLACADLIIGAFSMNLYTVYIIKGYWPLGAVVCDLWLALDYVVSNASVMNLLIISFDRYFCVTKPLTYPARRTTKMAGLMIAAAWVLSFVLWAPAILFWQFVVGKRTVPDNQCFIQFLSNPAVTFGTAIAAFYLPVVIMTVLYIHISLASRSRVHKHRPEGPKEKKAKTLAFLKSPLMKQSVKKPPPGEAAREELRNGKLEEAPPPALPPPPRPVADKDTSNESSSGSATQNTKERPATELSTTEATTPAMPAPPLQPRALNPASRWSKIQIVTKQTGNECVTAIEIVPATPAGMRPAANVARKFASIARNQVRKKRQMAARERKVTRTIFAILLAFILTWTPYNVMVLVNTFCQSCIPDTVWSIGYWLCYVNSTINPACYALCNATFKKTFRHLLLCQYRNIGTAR
Sequence of Sigma non-opioid intracellular receptor 1 (Q9R0C9 whole entry): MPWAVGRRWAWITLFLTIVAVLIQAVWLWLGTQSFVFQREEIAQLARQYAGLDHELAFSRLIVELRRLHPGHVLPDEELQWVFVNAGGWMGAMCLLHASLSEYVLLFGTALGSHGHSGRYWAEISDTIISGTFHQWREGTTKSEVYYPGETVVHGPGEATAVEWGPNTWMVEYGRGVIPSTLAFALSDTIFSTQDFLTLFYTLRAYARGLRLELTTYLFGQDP

In the case of `CCCCN1CCC(COC(=O)c2ccc(N)c(OC)c2)CC1`, the Ki in experiment [1] is 0.000738 µM; in [2] it was 0.0024 µM; in experiment [4], more than 10 µM; in experiment [5], 5.69 µM; in experiment [6] it was more than 10 µM; in experiment [7] it was 2.86 µM. Also, the Ki was more than 10 µM in experiment [8]; more than 10 µM in experiment [9]; more than 10 µM in experiment [10]; 4.23 µM in [11]; more than 10 µM in experiment [12]; more than 10 µM in experiment [13]. Also, the Ki in experiment [14] was 0.211 µM; in experiment [15], more than 10 µM; on D(1A) dopamine receptor it was more than 10 µM; on D(2) dopamine receptor it was more than 10 µM; on D(3) dopamine receptor, 6.27 µM; at D(4) dopamine receptor, 1.27 µM. Further, the Ki is more than 10 µM in experiment [16]; more than 10 µM at Histamine H1 receptor; more than 10 µM on Histamine H2 receptor; more than 10 µM in experiment [17]; 2.58 µM in experiment [18]. In addition, the Efficacy entry in experiment [3] is “Active”.
On to `CCCCN1CCC(COC(=O)c2cc(Cl)c(NC)c3c2OCCO3)CC1`, for which the Ki stood at 0.000577 µM in [1]; 0.002 µM in experiment [2]; 0.82 µM in [4]; 1.3 µM in [5]; 0.066 µM in [7]; 5.7 µM in [8]. In addition, the Ki is 9.01 µM in experiment [9]; 0.522 µM in experiment [10]; more than 10 µM in [11]; 2.24 µM in experiment [12]; more than 10 µM in experiment [13]; 0.06 µM in experiment [14]. The Ki in experiment [15] was more than 10 µM; on D(1A) dopamine receptor, 2.29 µM; on D(2) dopamine receptor, 0.22 µM; on D(3) dopamine receptor it was 0.336 µM; on D(4) dopamine receptor, 0.043 µM; in experiment [16] it was more than 10 µM. Besides, the Ki is 2.73 µM on Histamine H1 receptor, more than 10 µM at Histamine H2 receptor, 0.433 µM in experiment [17] and 0.76 µM in experiment [18]. For the same molecule, in [19], the Efficacy entry is “Active”. In experiment [20], this molecule had an EC50 of 0.0141 µM.

The values above are taken from ChEMBL document CHEMBL1255169, “Synthesis, structure-affinity relationships, and radiolabeling of selective high-affinity 5-HT4 receptor ligands as prospective imaging probes for positron emission tomography” (J Med Chem, 2010).
